Reference: patent publication US9017744B2, “Method of using isomaltulose to suppress blood glucose level increase” (Mitsui Sugar Co., Ltd., priority 2002, dated 2015)

Columns and labels:
[1] = Crystallization of 50 wt % solutions stored at 5° C. (Test Example 2); assay type: physicochemical
Description: Dissolution was performed until no crystal remained at 50° C. These vials were put in a refrigerator set at 5° C. to observe crystallization.

[2] = Heat coloring of carbohydrate with glutamic acid (Test Example 1); assay type: physicochemical; settings: for absorbance at a wavelength of 420 nm: 5 g carbohydrate + 1 g glutamic acid in 50 g
Description: 5 g of carbohydrate and 1 g of glutamic acid were dissolved in distilled water to prepare a sample having a total weight of 50 g. […] These samples were filled in 100 ml capped vials and then heated at 100° C. for 50 min. After the heating, samples were cooled and respective absorbances were measured at a wavelength of 420 nm.
Three same kinds of samples were prepared and treated in an autoclave at 121° C. for 20 min, that is, the same level as in retort sterilization for a canned food, and measured the absorbance at a wavelength of 420 nm.

[3] = Blood glucose level test after ingesting drinks (Example 1); assay type: in vivo, human; settings: for blood glucose level increase: FIG. 1
Description: Using each of the Comparative drinks as a control sample, a blood glucose level test after ingesting the drink was performed as will be described later. […] Using each of the Example drinks as a test sample, a blood glucose level test after ingesting the drink was performed. The blood glucose level test was as follows: Five healthy volunteers (4 males and 1 female), 31-40 aged, were selected as the test subjects. They took no breakfast on a test day and kept fasting for 12 hrs or more before the start of the test. Their bloods were collected before ingesting a drink (0 min), and 30 min, 60 min, 90 min, and 120 min after ingesting it. As a result their blood glucose levels are determined. One kind of drink was ingested for one test. Another drink was ingested on another day and the test was carried out once a day for total 8 days. The same five test subjects were applied to all the tests for blood glucose levels. In the Example 1, the free style Kissei kit (made by Kissei Pharmaceutical Co., LTD) was used to collect blood samples and test a blood glucose level.

[4] = rats; high fat diet, all sucrose replaced by isomaltulose, compared with sucrose-containing feed; cited from earlier work
[5] = Body fat accumulation in mice fed feeds for 8 weeks (Example 3); assay type: in vivo, C57BL/6CrSlc(SPF) male mice
Source text: Mice were consecutively fed with a feed added with isomaltulose, a feed added with sucrose and no isomaltulose, and a feed added with both isomaltulose and sucrose to compare their body fat accumulation amount.
C57BL/6CrSlc(SPF) male mice (30 heads) aged 7 weeks were fed with a commercial powder feed (trade name: CRF-1 powder, made by Oriental Yeast Co., LTD) and water ad libitum to prefeed for a week. […] The groups were fed with their respective feeds and water ad libitum for 8 weeks. The feeding condition was as follows: temperature 22±3° C., humidity (relative humidity) 50±20%, ventilation cycles 13-17 times/hr, and lighting time 8:00-20:00 (light 12 hrs, dark 12 hrs).
After the end of the feeding, the mice were light anesthetized with ether and sectioned abdominally to exsanguinate from postcava to death. For a typical example of every group, digital photographs showing body fat accumulation inside the abdominal cavity were taken. Then, for all the cases, the kidney peripheral fat (including the retroperitoneal fat) and the epididymis peripheral fat were taken out to measure their wet weights separately in left and right. The mesenteric fat also was taken out to measure its wet weight. These three kinds of fat tissues are typical of visceral fat. […]

[6] = monohydrate; at 20° C.; cited from earlier work
[7] = autoclave at 121° C. for 20 min

Compound	crystallization observed ([1]; 50 wt % total sugar solution, during 6 days)	visual colour of sample [2, 7]	blood glucose level 30 minutes after ingesting ([3]; 25 g ingested alone (Comparative example))	blood glucose level 30 minutes after ingesting ([3]; 50 g ingested alone (Comparative example))	body fat accumulation amount [4]	ratio of isomaltulose in carbohydrate at which it reduces the accumulation of body fat ([5]; mouse, in vivo)	minimum intake of isomaltulose necessary to reduce a body fat accumulation ([5]; presumed, in terms of a person having a body weight of 60 kg)	storage time at which crystallization began ([1]; 50 wt % solution, 100 ml)	amount of crystal ([1]; 50 wt % solution, 100 ml, after 6 days)	absorbance at a wavelength of 420 nm [2, 7]	absorbance at a wavelength of 420 nm ([2]; heated at 100° C. for 50 min)	increase in blood glucose level after consuming the carbohydrates ([3]; 25 g isomaltulose in combination with 25 g sucrose or 25 g glucose)	area under blood glucose level increase curve ([3]; 25 g isomaltulose in combination with 25 g sucrose or 25 g glucose, compared with the Comparative groups)	minimum intake of isomaltulose necessary to reduce an increase in blood glucose level ([3]; in vivo)	blood glucose level increase ([3]; simultaneous ingestion of 25 g isomaltulose and 25 g glucose, compared with 25 g glucose alone)	blood glucose level increase ([3]; simultaneous ingestion of 25 g isomaltulose and 25 g sucrose, compared with 50 g sucrose alone and 25 g sucrose alone)	isomaltulose ratio in total carbohydrate at which the GI value surely decreased ([3]; total carbohydrate weight 50 g, FIG. 4)	solubility [6]
OC[C@H]1O[C@@](CO)(O[C@H]2O[C@H](CO)[C@@H](O)[C@H](O)[C@H]2O)[C@@H](O)[C@@H]1O [sucrose, reference compound]	no crystallization	clearly light brown	sudden increase	sudden increase	–	–	–	–	–	–	–	–	–	–	–	–	–	–
OC[C@H]1O[C@H](OC[C@H]2OC(O)(CO)[C@@H](O)[C@@H]2O)[C@H](O)[C@@H](O)[C@@H]1O (stereo partly drawn) [isomaltulose, 6-O-alpha-D-Glucopyranosyl-D-fructofuranose]	–	clearly deep brown	–	–	lower body fat accumulation amount	≥ 20%	≥ 10 g	2 days	10.77 g	0.322	0.004	no sudden increases	significantly lower values	≥ 5 g	reduced	reduced	≥ 10%	38.4 g in 100 g water
